Where two headings read alike, the source gives them in different places.
Columns and labels:
Type in all cases: cell-based
[1] = system: human lung fibroblasts HFL1; assay: Anti-fibrosis activity test: inhibition of proliferation of human lung fibroblasts HFL1 (CCK-8); conditions: Homo sapiens, HFL1, 48 h
Description: (§1) BHK-21 cells in exponential growth phase were selected. After the fusion growth reached 85-95%, normal passage method was utilized to digest and collect the cells, followed by cell counting and adjusting the cell density to 2×10^4 cells/mL. The cells were seeded into 96-well plates, 100 μL/well, and were incubated under the condition of 5% CO2 at 37° C.
(§2) The supernatant was removed after the cells had adhered to the wall for 24 hours. The culture solution containing the prepared compounds at different concentrations were added to the wells, 100 μL/well, each concentration in triplicate. The cells were subcultured for 48 hours after administration. Commercially available pirfenidone was employed as the positive control.
(§3) 10 μL of CCK-8 solution ( 1/10 of the volume of the culture solution) was added to each well 48 hours after the administration, and incubated for 2 hours. The absorbance (A) of each well was determined by a microplate reader at 450 nm wavelength. The inhibition rate against cell proliferation for each compound was calculated based on A, wherein inhibition rate against cell proliferation (inhibition ratio, IR)=(1−value of experimental group (Ai)/value of blank control group (Ao))×100% and the IC50 value of each compound was calculated by the data processing software.
(§4) Using the same protocol for the cell experiments, the inhibitory activity of the test compounds against the proliferation of human lung fibroblasts HFL1, human hepatic stellate cells LX-2, human fibrosarcoma cells HT-1080, human dermal fibroblasts CCC-ESF-1, human embryonic lung fibroblast IMR-90, cardiac fibroblast RAT-iCell-C002 was assayed.

[2] = system: mouse macrophages (RAW264.7); assay: Lipopolysaccharide-induced NO secretion in macrophages (Griess); conditions: RAW264.7, LPS 1 μg/ml, a/b isomers given as first/second symbol, read-out: IC50 (μM), inhibition of lipopolysaccharide-induced NO secretion in macrophages
Description: The effects of the compounds of the present application on the lipopolysaccharide-induced NO secretion in macrophage was tested Principle: Anti-inflammatory drug activity screening is to detect the inhibitory effect of compounds on NO production in the mouse macrophages (RAW264.7). When immune cells are stimulated by microbial endotoxin, inflammatory mediators, etc., a large amount of induced NO synthase (iNOS) is produced, and thus NO is generated for immune response. Accordingly, the inhibition of NO production can serve as a direct indicator of the anti-inflammatory activity of the compound. The activity of the compound to inhibit NO production at the cellular level is directly evaluated in the abovementioned test model, thereby reflecting the anti-inflammatory activity of the compound. In this experiment, the content of NO in the medium was detected by Gris kit (Molecular probes, G-7921). Macrophages (Raw264.7) were cultured in DMEM medium containing 10% fetal bovine serum, with the cell concentration adjusted. The cells were seeded in 24-well cell culture plates, cultured in an incubator, and the test samples in different concentrations were added every other day. The blank medium was used as a blank control, and commercially available indomethacin and resveratrol were employed as positive controls. After the addition of lipopolysaccharide (LPS, 1 μg/ml), incubation was performed for 24 hours. Then the supernatant culture solution was taken, to […] reagent was added, and the absorbance value was measured by a microplate reader at 548 nm. Inhibition rate=([…])×100%.

[3] = system: human dermal fibroblasts CCC-ESF-1; assay: Anti-fibrosis activity test: inhibition of proliferation of human dermal fibroblasts CCC-ESF-1 (CCK-8); conditions: Fibroblast
Description: as §1, §2, §3, §4

[4] = system: human fibrosarcoma cells HT-1080; assay: Anti-fibrosis activity test: inhibition of proliferation of human fibrosarcoma cells HT-1080 (CCK-8); conditions: Homo sapiens, HT-1080, 48 h
Description: as §1, §2, §3, §4

[5] = system: cardiac fibroblast RAT-iCell-C002; assay: Anti-fibrosis activity test: inhibition of proliferation of cardiac fibroblast RAT-iCell-C002 (CCK-8)
Description: as §1, §2, §3, §4

[6] = system: human hepatic stellate cells LX-2; assay: Anti-fibrosis activity test: inhibition of proliferation of human hepatic stellate cells LX-2 (CCK-8); conditions: Homo sapiens, 48 h
Description: as §1, §2, §3, §4

[7] = system: human embryonic lung fibroblast IMR-90; assay: Anti-fibrosis activity test: inhibition of proliferation of human embryonic lung fibroblast IMR-90 (CCK-8)
Description: as §1, §2, §3, §4

[8] = system: BHK-21 cells; assay: Anti-fibrosis activity test: inhibition of BHK-21 cell proliferation (CCK-8); conditions: Mesocricetus auratus, BHK-21, 48 h
Description: as §1, §2, §3

[9] = human lung fibroblasts HFL1, CCK-8, 48 hours
[10] = human dermal fibroblasts CCC-ESF-1, CCK-8, 48 hours
[11] = human fibrosarcoma cells HT-1080, CCK-8, 48 hours
[12] = Cardiac fibroblast, 48 h, cardiac fibroblast RAT-iCell-C002, CCK-8, 48 hours
[13] = human hepatic stellate cells LX-2, CCK-8, 48 hours
[14] = human embryonic lung fibroblast IMR-90, CCK-8, 48 hours
[15] = CCK-8, 48 hours after administration
[16] = cardiac fibroblast RAT-iCell-C002, CCK-8, 48 hours

Compound | IC50 ([2]; Mus musculus, RAW264.7, 24 h) [µM] | IC50 [4, 11] [mM] | IC50 [1, 9] [mM] | IC50 [3, 10] [mM] | IC50 [5, 12] [mM] | IC50 [6, 13] [mM] | IC50 [7, 14] [mM] | IC50 [8, 15] [mM] | other results
O=C1c2c(nc3c(C(F)(F)F)cccc3c2OCc2ccccc2Cl)-c2cccn21 [Compound 457b, 9-((2-chlorobenzyl)oxy)-5-(trifluoromethyl)-10H-pyrrolizino[1,2-b]quinolin-10-one] | 1 to 10 | 0.05 to 5 | 0.05 to 5 | 0.05 to 5 | 0.05 to 5 | 0.05 to 5 | 0.05 to 5 | 0.05 to 5 | –
O=C1c2c(nc3c(F)cccc3c2OCc2ccc(Cl)cc2)-c2cccn21 [Compound 453b, 9-((4-chlorobenzyl)oxy)-5-fluoro-10H-pyrrolizino[1,2-b]quinolin-10-one] | 10 to 50 | 0.05 to 5 | 0.05 to 5 | 0.05 to 5 | 0.05 to 5 | 0.05 to 5 | 0.05 to 5 | 0.05 to 5 | –
O=C1c2c(n(Cc3cccc(Cl)c3)c3cc(F)ccc3c2=O)-c2cccn21 [Compound 497a, 4-(3-Chlorobenzyl)-6-fluoro-9H-pyrrolizino[1,2-b]quinoline-9,10(4H)-dione] | 0.1 to 1 | 0.05 to 5 | 0.05 to 5 | 0.05 to 5 | < 0.05 | 0.05 to 5 | 0.05 to 5 | 0.05 to 5 | –
O=C1c2c(n(Cc3ccc(Cl)cc3)c3c(C(F)(F)F)c(N4CCNCC4)ccc3c2=O)-c2cccn21 [Compound 487a, 4-(4-Chlorobenzyl)-6-(piperazin-1-yl)-5-(trifluoromethyl)-9H-pyrrolizino[1,2-b]quinoline-9,10(4H)-dione] | – | – | – | – | – | – | – | – | IC50 ([2]; 24 hours): 0.1 to 1 µM; IC50 [5, 16]: < 0.05 mM
O=C1c2c(nc3c(C(F)(F)F)c(N4CCNCC4)ccc3c2OCc2ccc(Cl)cc2)-c2cccn21 [Compound 487b, 9-((4-chlorobenzyl)oxy)-6-(piperazin-1-yl)-5-(trifluoromethyl)-10H-pyrrolizino[1,2-b]quinolin-10-one] | – | – | – | – | – | – | – | – | IC50 ([2]; 24 hours): 10 to 50 µM; IC50 [5, 16]: 0.05 to 5 mM
N#Cc1cc2c(=O)c3c(n(Cc4ccc(C(F)(F)F)cc4)c2cc1N1CCNCC1)-c1cccn1C3=O [Compound 642a, 9,10-Dioxo-6-(piperazin-1-yl)-4-(4-(trifluoromethyl)benzyl)-4,10-dihydro-9H-pyrrolizino[1,2-b]quinoline-7-carbonitrile] | – | 0.05 to 5 | 0.05 to 5 | < 0.05 | 0.05 to 5 | 0.05 to 5 | 0.05 to 5 | 0.05 to 5 | –

Now from value to compound, other results behind:

IC50 ([2]; Mus musculus, RAW264.7, 24 h) [µM] | IC50 [4, 11] [mM] | Compound | IC50 [1, 9] [mM] | IC50 [3, 10] [mM] | IC50 [5, 12] [mM] | IC50 [6, 13] [mM] | IC50 [7, 14] [mM] | IC50 [8, 15] [mM] | other results
1 to 10 | 0.05 to 5 | O=C1c2c(nc3c(Cl)cccc3c2OCc2ccccc2Cl)-c2cccn21 [Compound 461b, 5-chloro-9-((2-chlorobenzyl)oxy)-10H-pyrrolizino[1,2-b]quinolin-10-one] | 0.05 to 5 | 0.05 to 5 | 0.05 to 5 | 0.05 to 5 | 0.05 to 5 | 0.05 to 5 | –
1 to 10 | – | Oc1ccc(C=Cc2cc(O)cc(O)c2)cc1 [resveratrol, reference compound] | – | – | – | – | – | – | –
1 to 10 | – | O=C1c2nc3ccccc3c(OCCCN3CCCCC3)c2-c2cccn21 [Compound 786b, 11-(3-(piperidin-1-yl)propoxy)-5H-pyrrolizino[2,1-b]quinolin-5-one] | – | – | – | – | – | – | IC50 ([1]; HFL1 cells, 48 h, CCK-8): 0.05 to 5 mM; IC50 ([3]; Homo sapiens, CCC-ESF-1 cells, 48 h, CCK-8): 0.05 to 5 mM; IC50 ([4]; HT-1080 cells, 48 h, CCK-8): 0.05 to 5 mM; IC50 ([5]; Cardiac fibroblast, 48 h, RAT-iCell-C002 cells, CCK-8): 0.05 to 5 mM; IC50 ([6]; LX-2, 48 h, LX-2 cells, CCK-8): 0.05 to 5 mM; IC50 ([7]; Homo sapiens, IMR-90 cells, 48 h, CCK-8): 0.05 to 5 mM; IC50 ([8]; 48 h, CCK-8): 0.05 to 5 mM
